ChEMBL document CHEMBL2331210, “New 2-benzylsulfanyl-nicotinic acid based 1,3,4-oxadiazoles: their synthesis and biological evaluation” (2013)
Converted amounts (≈) assume the structure as drawn.

Tests used:
Assay type in all cases: functional
[1] = tested on: UO-31; assay: Antitumor activity against human UO31 cells assessed as cell growth at 0.1 uM; settings: read-out: Activity
[2] = tested on: TK-10; assay: Antitumor activity against human TK10 cells assessed as cell growth at 0.1 uM; settings: read-out: Activity
[3] = tested on: SN12C; assay: Antitumor activity against human SN12C cells assessed as cell growth at 0.1 uM; settings: read-out: Activity
[4] = tested on: RXF 393; assay: Antitumor activity against human RXF393 cells assessed as cell growth at 0.1 uM; settings: read-out: Activity
[5] = tested on: ACHN; assay: Antitumor activity against human ACHN cells assessed as cell growth at 0.1 uM; settings: read-out: Activity
[6] = tested on: CAKI-1; assay: Antitumor activity against human CAKI-1 cells assessed as cell growth at 0.1 uM; settings: read-out: Activity
[7] = tested on: A498; assay: Antitumor activity against human A498 cells assessed as cell growth at 0.1 uM; settings: read-out: Activity
[8] = tested on: SK-OV-3; assay: Antitumor activity against human SKOV3 cells assessed as cell growth at 0.1 uM; settings: read-out: Activity
[9] = tested on: NCI/ADR-RES; assay: Antitumor activity against human NCI/ADR-RES cells assessed as cell growth at 0.1 uM; settings: read-out: Activity
[10] = tested on: OVCAR-8; assay: Antitumor activity against human OVCAR8 cells assessed as cell growth at 0.1 uM; settings: read-out: Activity
[11] = tested on: OVCAR-5; assay: Antitumor activity against human OVCAR5 cells assessed as cell growth at 0.1 uM; settings: read-out: Activity
[12] = tested on: OVCAR-3; assay: Antitumor activity against human OVCAR3 cells assessed as cell growth at 0.1 uM; settings: read-out: Activity
[13] = tested on: OVCAR-4; assay: Antitumor activity against human OVCAR4 cells assessed as cell growth at 0.1 uM; settings: read-out: Activity
[14] = tested on: IGROV-1; assay: Antitumor activity against human IGROV1 cells assessed as cell growth at 0.1 uM; settings: read-out: Activity
[15] = tested on: UACC-62; assay: Antitumor activity against human UACC62 cells assessed as cell growth at 0.1 uM; settings: read-out: Activity
[16] = tested on: UACC-257; assay: Antitumor activity against human UACC257 cells assessed as cell growth at 0.1 uM; settings: read-out: Activity
[17] = tested on: SK-MEL-5; assay: Antitumor activity against human SK-MEL-5 cells assessed as cell growth at 0.1 uM; settings: read-out: Activity
[18] = tested on: SK-MEL-28; assay: Antitumor activity against human SK-MEL-28 cells assessed as cell growth at 0.1 uM; settings: read-out: Activity
[19] = tested on: MDA-MB-435; assay: Antitumor activity against human MDA-MB-435 cells assessed as cell growth at 0.1 uM; settings: read-out: Activity
[20] = tested on: M14; assay: Antitumor activity against human M14 cells assessed as cell growth at 0.1 uM; settings: read-out: Activity
[21] = tested on: Malme-3M; assay: Antitumor activity against human MALME-3M cells assessed as cell growth at 0.1 uM; settings: read-out: Activity
[22] = tested on: LOX IMVI; assay: Antitumor activity against human LOXIMVI cells assessed as cell growth at 0.1 uM; settings: read-out: Activity
[23] = tested on: U-251; assay: Antitumor activity against human U251 cells assessed as cell growth at 0.1 uM; settings: read-out: Activity
[24] = tested on: SNB-75; assay: Antitumor activity against human SNB75 cells assessed as cell growth at 0.1 uM; settings: read-out: Activity
[25] = tested on: SF-539; assay: Antitumor activity against human SF539 cells assessed as cell growth at 0.1 uM; settings: read-out: Activity
[26] = tested on: SNB-19; assay: Antitumor activity against human SNB19 cells assessed as cell growth at 0.1 uM; settings: read-out: Activity
[27] = tested on: SF-295; assay: Antitumor activity against human SF295 cells assessed as cell growth at 0.1 uM; settings: read-out: Activity
[28] = tested on: SF-268; assay: Antitumor activity against human SF268 cells assessed as cell growth at 0.1 uM; settings: read-out: Activity
[29] = tested on: SW-620; assay: Antitumor activity against human SW620 cells assessed as cell growth at 0.1 uM; settings: read-out: Activity
[30] = tested on: KM12; assay: Antitumor activity against human KM12 cells assessed as cell growth at 0.1 uM; settings: read-out: Activity
[31] = tested on: HCT-15; assay: Antitumor activity against human HCT15 cells assessed as cell growth at 0.1 uM; settings: read-out: Activity
[32] = tested on: HT-29; assay: Antitumor activity against human HT-29 cells assessed as cell growth at 0.1 uM; settings: read-out: Activity
[33] = tested on: HCT-116; assay: Antitumor activity against human HCT116 cells assessed as cell growth at 0.1 uM; settings: read-out: Activity
[34] = Antitumor activity against human HCC2998 cells assessed as cell growth at 0.1 uM; settings: HCC 2998, read-out: Activity
[35] = tested on: NCI-H460; assay: Antitumor activity against human NCI-H460 cells assessed as cell growth at 0.1 uM; settings: read-out: Activity
[36] = tested on: NCI-H522; assay: Antitumor activity against human NCI-H522 cells assessed as cell growth at 0.1 uM; settings: read-out: Activity
[37] = tested on: NCI-H23; assay: Antitumor activity against human NCI-H23 cells assessed as cell growth at 0.1 uM; settings: read-out: Activity
[38] = tested on: NCI-H226; assay: Antitumor activity against human NCI-H226 cells assessed as cell growth at 0.1 uM; settings: read-out: Activity
[39] = tested on: HOP-62; assay: Antitumor activity against human HOP62 cells assessed as cell growth at 0.1 uM; settings: read-out: Activity
[40] = Antitumor activity against human EKVX cells assessed as cell growth at 0.1 uM; settings: read-out: Activity
[41] = tested on: A549; assay: Antitumor activity against human A549/ATCC cells assessed as cell growth at 0.1 uM; settings: read-out: Activity
[42] = tested on: SR; assay: Antitumor activity against human SR cells assessed as cell growth at 0.1 uM; settings: read-out: Activity
[43] = tested on: MOLT-4; assay: Antitumor activity against human MOLT4 cells assessed as cell growth at 0.1 uM; settings: read-out: Activity
[44] = tested on: RPMI-8226; assay: Antitumor activity against human RPMI8226 cells assessed as cell growth at 0.1 uM; settings: read-out: Activity
[45] = tested on: K562; assay: Antitumor activity against human K562 cells assessed as cell growth at 0.1 uM; settings: read-out: Activity
[46] = tested on: HL-60; assay: Antitumor activity against human HL60(TB) cells assessed as cell growth at 0.1 uM; settings: read-out: Activity
[47] = tested on: CCRF-CEM; assay: Antitumor activity against human CCRF-CEM cells assessed as cell growth at 0.1 uM; settings: read-out: Activity
[48] = tested on: Mycobacterium tuberculosis; assay: Antitubercular activity against Mycobacterium tuberculosis H37Rv assessed as growth inhibition after 12 to 28 days by L.J. agar MIC method
[49] = tested on: Aspergillus clavatus; assay: Antimicrobial activity against Aspergillus clavatus MTCC 1323 assessed as growth inhibition measured after overnight incubation by broth dilution method
[50] = tested on: Aspergillus niger; assay: Antimicrobial activity against Aspergillus niger MTCC 282 assessed as growth inhibition measured after overnight incubation by broth dilution method
[51] = tested on: Candida albicans; assay: Antimicrobial activity against Candida albicans MTCC 227 assessed as growth inhibition measured after overnight incubation by broth dilution method
[52] = tested on: Pseudomonas aeruginosa; assay: Antimicrobial activity against Pseudomonas aeruginosa MTCC 2488 assessed as growth inhibition measured after overnight incubation by broth dilution method
[53] = tested on: Escherichia coli; assay: Antimicrobial activity against Escherichia coli MTCC 443 assessed as growth inhibition measured after overnight incubation by broth dilution method
[54] = tested on: Streptococcus pyogenes; assay: Antimicrobial activity against Streptococcus pyogenes MTCC 442 assessed as growth inhibition measured after overnight incubation by broth dilution method
[55] = tested on: Staphylococcus aureus; assay: Antimicrobial activity against Staphylococcus aureus MTCC 96 assessed as growth inhibition measured after overnight incubation by broth dilution method
[56] = tested on: MDA-MB-468; assay: Antitumor activity against human MDA-MB-468 cells assessed as cell growth at 0.1 uM; settings: read-out: Activity
[57] = tested on: T47D; assay: Antitumor activity against human T47D cells assessed as cell growth at 0.1 uM; settings: read-out: Activity
[58] = Antitumor activity against human Hs 578T cells assessed as cell growth at 0.1 uM; settings: read-out: Activity
[59] = tested on: BT-549; assay: Antitumor activity against human BT549 cells assessed as cell growth at 0.1 uM; settings: read-out: Activity
[60] = tested on: MDA-MB-231; assay: Antitumor activity against human MDA-MB-231/ATCC cells assessed as cell growth at 0.1 uM; settings: read-out: Activity
[61] = tested on: DU-145; assay: Antitumor activity against human DU145 cells assessed as cell growth at 0.1 uM; settings: read-out: Activity
[62] = tested on: MCF7; assay: Antitumor activity against human MCF7 cells assessed as cell growth at 0.1 uM; settings: read-out: Activity
[63] = tested on: PC-3; assay: Antitumor activity against human PC3 cells assessed as cell growth at 0.1 uM; settings: read-out: Activity

SMILES: c1ccc(CSc2ncccc2-c2nnc(SCCN3CCOCC3)o2)cc1
- growth at 0.1 µM [1]: 89.4%
- growth at 0.1 µM [2]: 118%
- growth at 0.1 µM [3]: 114%
- growth at 0.1 µM [4]: 123%
- growth at 0.1 µM [5]: 124%
- growth at 0.1 µM [6]: 100%
- growth at 0.1 µM [7]: 107%
- growth at 0.1 µM [8]: 109%
- growth at 0.1 µM [9]: 107%
- growth at 0.1 µM [10]: 109%
- growth at 0.1 µM [11]: 119%
- growth at 0.1 µM [12]: 120%
- growth at 0.1 µM [13]: 106%
- growth at 0.1 µM [14]: 98.3%
- growth at 0.1 µM [15]: 113%
- growth at 0.1 µM [16]: 147%
- growth at 0.1 µM [17]: 102%
- growth at 0.1 µM [18]: 107%
- growth at 0.1 µM [19]: 114%
- growth at 0.1 µM [20]: 108%
- growth at 0.1 µM [21]: 111%
- growth at 0.1 µM [22]: 108%
- growth at 0.1 µM [23]: 117%
- growth at 0.1 µM [24]: 79.6%
- growth at 0.1 µM [25]: 132%
- growth at 0.1 µM [26]: 115%
- growth at 0.1 µM [27]: 106%
- growth at 0.1 µM [28]: 107%
- growth at 0.1 µM [29]: 107%
- growth at 0.1 µM [30]: 107%
- growth at 0.1 µM [31]: 105%
- growth at 0.1 µM [32]: 111%
- growth at 0.1 µM [33]: 108%
- growth at 0.1 µM [34]: 116%
- growth at 0.1 µM [35]: 122%
- growth at 0.1 µM [36]: 105%
- growth at 0.1 µM [37]: 104%
- growth at 0.1 µM [38]: 114%
- growth at 0.1 µM [39]: 116%
- growth at 0.1 µM [40]: 108%
- growth at 0.1 µM [41]: 112%
- growth at 0.1 µM [42]: 104%
- growth at 0.1 µM [43]: 103%
- growth at 0.1 µM [44]: 104%
- growth at 0.1 µM [45]: 117%
- growth at 0.1 µM [46]: 101%
- growth at 0.1 µM [47]: 103%
- growth inhibition (GI) [48]: 99%
- MIC ([48]; Mycobacterium tuberculosis, H37Rv): 25 µg/mL (≈ 60.3 µM)
- MIC [49]: 1000 µg/mL (≈ 2410 µM)
- MIC [50]: 1000 µg/mL (≈ 2410 µM)
- MIC [51]: 1000 µg/mL (≈ 2410 µM)
- MIC [52]: 200 µg/mL (≈ 482 µM)
- MIC [53]: 200 µg/mL (≈ 482 µM)
- MIC [54]: 200 µg/mL (≈ 482 µM)
- MIC [55]: 500 µg/mL (≈ 1210 µM)
- growth at 0.1 µM [56]: 98.3%
- growth at 0.1 µM [57]: 101%
- growth at 0.1 µM [58]: 133%
- growth at 0.1 µM [59]: 112%
- growth at 0.1 µM [60]: 114%
- growth at 0.1 µM [61]: 112%
- growth at 0.1 µM [62]: 94.4%
- growth at 0.1 µM [63]: 111%
